The values that follow come from patent publication US20250114289A1, “HAIR DYE COMPOSITION” (The Procter & Gamble Company, priority 2023, published 2025).

Data set [1] can be described thus: Activating EMR and deactivating EMR wavelengths of diarylethene photochromic dyes. In kind it is physicochemical. As to conditions: for peak deactivating EMR: FIG. 6; for peak activating EMR: FIG. 5. An excerpt: The activation and deactivation properties are illustrated in FIGS. 5 and 6, respectively.
A short description of data set [2]: Solubility of photochromic dyes in cosmetically acceptable solvents. The class given is physicochemical. The text has this: Thus, it is important to select a solvent that is suitable for use on human skin and hair and enables formulation of a stable hair dye composition with sufficient dye to provide good hair coloring results.

Regarding `Cc1sc(-c2ccccc2)cc1C1=C(c2cc(-c3ccccc3)sc2C)C(F)(F)C(F)(F)C1(F)F` [DAE-0001, 3,3′-(perfluorocyclopent-1-ene-1,2-diyl)bis(2-methyl-5-phenylthiophene)], the “peak deactivating EMR” value in data set [1] is 560-610 nm. Also, the Max concentration was 0.66 % w/w in data set [2] (solvent Caprylic triglyceride); 4.95 % w/w in data set [2] (solvent Isopropyl isostearate); 4.8 % w/w in data set [2] (solvent Isopropyl myristate); 1.47 % w/w in data set [2] (solvent Oleyl alcohol); 0.9 % w/w in data set [2] (solvent Polysorbate 20); 1.08 % w/w in data set [2] (solvent Polysorbate 80).
For the compound `Cc1sc(-c2ccccc2)nc1C1=C(c2nc(-c3ccccc3)sc2C)C(F)(F)C(F)(F)C1(F)F` [DAE-0012, 4,4′-(perfluorocyclopent-1-ene-1,2-diyl)bis(5-methyl-2-phenylthiazole)], the “peak activating EMR” value in data set [1] is 290-310 nm. Moreover, the “peak deactivating EMR” value in data set [1] was 510-540 nm. The Max concentration in data set [2] (solvent Caprylic triglyceride) was 0.91 % w/w; in data set [2] (solvent Isopropyl isostearate) it was 2.32 % w/w; in data set [2] (solvent Isopropyl myristate) it was 2.25 % w/w; in data set [2] (solvent Oleyl alcohol), 0.79 % w/w; in data set [2] (solvent Polysorbate 20) it was 1.78 % w/w; in data set [2] (solvent Polysorbate 80) it was 2.20 % w/w.
`Cc1cc(C)c(C2=C(c3sc(C)cc3C)C(F)(F)C(F)(F)C2(F)F)s1` [DAE-0068, 5,5′-(perfluorocyclopent-1-ene-1,2-diyl)bis(2,4-dimethylthiophene)]: the “peak activating EMR” value in data set [1] is reported as 330-360 nm. In data set [1], the “peak deactivating EMR” value is recorded as 410-450 nm. Besides, the Max concentration in data set [2] (solvent Caprylic triglyceride) is on record as 3.46 % w/w; in data set [2] (solvent Isopropyl isostearate) it was 3.41 % w/w; in data set [2] (solvent Isopropyl myristate) it was 3.09 % w/w; in data set [2] (solvent Oleyl alcohol) it was 1.34 % w/w; in data set [2] (solvent Polysorbate 20), 0.95 % w/w; in data set [2] (solvent Polysorbate 80) it was 0.89 % w/w.
